In ChEMBL document CHEMBL4229379, “Synthesis and structure-activity relationship of novel bisindole amidines active against MDR Gram-positive and Gram-negative bacteria” (Eur J Med Chem, 2018):

Legend:
Type in all cases: functional
Klebsiella pneumoniae [1] = experiment: Antibacterial activity against new delhi metallo-beta-lactamase-1 harboring Klebsiella pneumoniae ATCC BAA-2146 after 18 hrs by CLSI broth microdilution method
Escherichia coli [2] = experiment: Antibacterial activity against extended-spectrum beta-lactamase harboring Escherichia coli 13-1 after 18 hrs by CLSI broth microdilution method
Enterobacter cloacae [3] = experiment: Antibacterial activity against new delhi metallo-beta-lactamase-1 harboring Enterobacter cloacae 13-1 after 18 hrs by CLSI broth microdilution method
Klebsiella pneumoniae [4] = experiment: Antibacterial activity against carbapenem-resistant Klebsiella pneumoniae 12-11 after 18 hrs by CLSI broth microdilution method
Enterobacter cloacae [5] = experiment: Antibacterial activity against new delhi metallo-beta-lactamase-1 harboring Enterobacter cloacae CDC1000654 after 18 hrs by CLSI broth microdilution method
Klebsiella pneumoniae [6] = experiment: Antibacterial activity against carbapenem-resistant Klebsiella pneumoniae 12-12 after 18 hrs by CLSI broth microdilution method
Klebsiella aerogenes [7] = experiment: Antibacterial activity against carbapenem-resistant Enterobacter aerogenes 11-4 after 18 hrs by CLSI broth microdilution method
Escherichia coli [8] = experiment: Antibacterial activity against extended-spectrum beta-lactamase harboring Escherichia coli CDC1001728 after 18 hrs by CLSI broth microdilution method
[9] = system: Acinetobacter calcoaceticus; experiment: Antibacterial activity against carbapenem-resistant Acinetobacter calcoaceticus 12-6 after 18 hrs by CLSI broth microdilution method
Klebsiella pneumoniae [10] = experiment: Antibacterial activity against new delhi metallo-beta-lactamase-1 harboring Klebsiella pneumoniae 13-1 after 18 hrs by CLSI broth microdilution method
[11] = system: Acinetobacter calcoaceticus; experiment: Antibacterial activity against new delhi metallo-beta-lactamase-1 harboring Acinetobacter calcoaceticus 13-1 after 18 hrs by CLSI broth microdilution method
[12] = system: Stenotrophomonas maltophilia; experiment: Antibacterial activity against Stenotrophomonas maltophilia ATCC 13636 after 18 hrs by CLSI broth microdilution method; conditions: ATCC 13636, 18 h
Enterococcus faecalis [13] = experiment: Antibacterial activity against vancomycin-sensitive Enterococcus faecalis 12-5 after 18 hrs by CLSI broth microdilution method; conditions: 12-5, 18 h
[14] = system: Staphylococcus epidermidis; experiment: Antibacterial activity against methicillin-sensitive Staphylococcus epidermidis ATCC 12228 after 18 hrs by CLSI broth microdilution method; conditions: ATCC 12228, 18 h
Serratia marcescens = experiment: Antibacterial activity against Serratia marcescens ATCC 21074 after 18 hrs by CLSI broth microdilution method; conditions: ATCC 21074, 18 h
Staphylococcus aureus [15] = experiment: Antibacterial activity against methicillin-sensitive Staphylococcus aureus 15 after 18 hrs by CLSI broth microdilution method; conditions: Staphylococcus aureus, 15, 18 h
Enterococcus faecalis [16] = experiment: Antibacterial activity against vancomycin-resistant Enterococcus faecalis ATCC 51299 after 18 hrs by CLSI broth microdilution method; conditions: ATCC 51299, 18 h
Proteus mirabilis = experiment: Antibacterial activity against Proteus mirabilis 12-6 after 18 hrs by CLSI broth microdilution method; conditions: 12-6, 18 h
Pseudomonas aeruginosa [17] = experiment: Antibacterial activity against Pseudomonas aeruginosa 12-16 after 18 hrs by CLSI broth microdilution method; conditions: 12-16, 18 h
Staphylococcus aureus [18] = experiment: Antibacterial activity against methicillin-resistant Staphylococcus aureus ATCC 33591 after 18 hrs by CLSI broth microdilution method; conditions: ATCC 33591, 18 h
Proteus vulgaris = experiment: Antibacterial activity against Proteus vulgaris ATCC 29905 after 18 hrs by CLSI broth microdilution method; conditions: ATCC 29905, 18 h
Enterococcus faecium [19] = experiment: Antibacterial activity against vancomycin-resistant Enterococcus faecium 12-1 after 18 hrs by CLSI broth microdilution method; conditions: 12-1, 18 h
Klebsiella pneumoniae [20] = experiment: Antibacterial activity against extended-spectrum beta-lactamase harboring Klebsiella pneumoniae 12-8 after 18 hrs by CLSI broth microdilution method; conditions: 12-8, 18 h
Enterococcus faecium [21] = experiment: Antibacterial activity against vancomycin-sensitive Enterococcus faecium 12-3 after 18 hrs by CLSI broth microdilution method; conditions: 12-3, 18 h
Enterococcus faecalis [22] = experiment: Antibacterial activity against vancomycin-resistant Enterococcus faecalis 09-9 after 18 hrs by CLSI broth microdilution method; conditions: 09-9, 18 h
[23] = system: Staphylococcus epidermidis; experiment: Antibacterial activity against methicillin-resistant Staphylococcus epidermidis 12-8 after 18 hrs by CLSI broth microdilution method; conditions: 12-8, 18 h
Escherichia coli [24] = experiment: Antibacterial activity against extended-spectrum beta-lactamase harboring Escherichia coli 12-15 after 18 hrs by CLSI broth microdilution method; conditions: 12-15, 18 h
Providencia rettgeri = experiment: Antibacterial activity against Providencia rettgeri ATCC 31052 after 18 hrs by CLSI broth microdilution method; conditions: ATCC 31052, 18 h
Klebsiella pneumoniae [25] = experiment: Antibacterial activity against extended-spectrum beta-lactamase deficient Klebsiella pneumoniae 7 after 18 hrs by CLSI broth microdilution method; conditions: Klebsiella pneumoniae, 7, 18 h
Citrobacter freundii = experiment: Antibacterial activity against Citrobacter freundii ATCC 43864 after 18 hrs by CLSI broth microdilution method; conditions: ATCC 43864, 18 h
Enterococcus faecium [26] = experiment: Antibacterial activity against vancomycin-resistant Enterococcus faecium ATCC 700221 after 18 hrs by CLSI broth microdilution method; conditions: ATCC 700221, 18 h
Pseudomonas aeruginosa [27] = experiment: Antibacterial activity against Pseudomonas aeruginosa ATCC 27853 after 18 hrs by CLSI broth microdilution method; conditions: ATCC 27853, 18 h
Klebsiella aerogenes [28] = experiment: Antibacterial activity against Enterobacter aerogenes ATCC 13048 after 18 hrs by CLSI broth microdilution method; conditions: ATCC 13048, 18 h
[29] = system: Acinetobacter calcoaceticus; experiment: Antibacterial activity against Acinetobacter calcoaceticus ATCC 19606 after 18 hrs by CLSI broth microdilution method; conditions: ATCC 19606, 18 h
Staphylococcus aureus [30] = experiment: Antibacterial activity against methicillin-resistant Staphylococcus aureus 12-33 after 18 hrs by CLSI broth microdilution method; conditions: 12-33, 18 h
Enterobacter cloacae [31] = experiment: Antibacterial activity against Enterobacter cloacae ATCC 43560 after 18 hrs by CLSI broth microdilution method; conditions: ATCC 43560, 18 h
Escherichia coli [32] = experiment: Antibacterial activity against extended-spectrum beta-lactamase deficient Escherichia coli 1515 after 18 hrs by CLSI broth microdilution method; conditions: Escherichia coli, 1515, 18 h
Klebsiella pneumoniae [33] = experiment: Antibacterial activity against extended-spectrum beta-lactamase deficient Klebsiella pneumoniae 12-4 after 18 hrs by CLSI broth microdilution method; conditions: 12-4, 18 h
[34] = system: Staphylococcus epidermidis; experiment: Antibacterial activity against methicillin-sensitive Staphylococcus epidermidis 12-6 after 18 hrs by CLSI broth microdilution method; conditions: 12-6, 18 h
Enterococcus faecalis [35] = experiment: Antibacterial activity against vancomycin-sensitive Enterococcus faecalis ATCC 29212 after 18 hrs by CLSI broth microdilution method; conditions: ATCC 29212, 18 h
Escherichia coli [36] = experiment: Antibacterial activity against extended-spectrum beta-lactamase deficient Escherichia coli ATCC 25922 after 18 hrs by CLSI broth microdilution method; conditions: ATCC 25922, 18 h
Staphylococcus aureus [37] = experiment: Antibacterial activity against methicillin-sensitive Staphylococcus aureus ATCC 29213 after 18 hrs by CLSI broth microdilution method; conditions: ATCC 29213, 18 h
Staphylococcus aureus [38] = experiment: Antibacterial activity against methicillin-sensitive Staphylococcus aureus 12-28 after 18 hrs by CLSI broth microdilution method; conditions: 12-28, 18 h

Measured: MIC

COLISTIN
0.5 µg/mL: Klebsiella pneumoniae [1] | Escherichia coli [2] | Enterobacter cloacae [3] | Klebsiella pneumoniae [4] | Enterobacter cloacae [5] | Klebsiella aerogenes [7] | Escherichia coli [8] | [9] | Klebsiella pneumoniae [10] | [11]
1 µg/mL: Klebsiella pneumoniae [6]

C[C@H]1COc2c(N3CCN(C)CC3)c(F)cc3c(=O)c(C(=O)O)cn1c23.C[C@H]1COc2c(N3CCN(C)CC3)c(F)cc3c(=O)c(C(=O)O)cn1c23.O [LEVOFLOXACIN]
8 µg/mL: Pseudomonas aeruginosa [17] | Klebsiella pneumoniae [20] | Klebsiella pneumoniae [6]; 12-12, 18 h | [9]; 12-6, 18 h
4 µg/mL: Proteus mirabilis | [23]
128 µg/mL: Enterobacter cloacae [3]; 13-1, 18 h
2 µg/mL: [11]; 13-1, 18 h
0.25 µg/mL: [12]
32 µg/mL: Enterococcus faecium [19] | Enterococcus faecium [21] | Enterobacter cloacae [5]; CDC1000654, 18 h | Staphylococcus aureus [30]
1 µg/mL: Enterococcus faecalis [13]
0.5 µg/mL: Enterococcus faecalis [16] | Pseudomonas aeruginosa [27] | [29] | [34] | Enterococcus faecalis [35]
64 µg/mL: Escherichia coli [2]; 13-1, 18 h | Enterococcus faecium [26]
0.06 µg/mL: Serratia marcescens
0.125 µg/mL: [14] | Staphylococcus aureus [15] | Staphylococcus aureus [18] | Proteus vulgaris | Staphylococcus aureus [37] | Staphylococcus aureus [38]
16 µg/mL: Klebsiella pneumoniae [4]; 12-11, 18 h | Escherichia coli [24] | Klebsiella aerogenes [7]; 11-4, 18 h | Escherichia coli [8]; CDC1001728, 18 h
≤ 0.03 µg/mL: Providencia rettgeri | Klebsiella pneumoniae [25] | Citrobacter freundii | Klebsiella aerogenes [28] | Enterobacter cloacae [31] | Escherichia coli [32] | Klebsiella pneumoniae [33] | Escherichia coli [36]
> 128 µg/mL: Klebsiella pneumoniae [1]; ATCC BAA-2146, 18 h | Enterococcus faecalis [22]
